Columns and labels:
hepatocytes = experiment: Comparative study of fluoro v. non-fluoro compounds: Firefly Luciferase transfection efficiency; type: cell-based; conditions: Firefly Luciferase expression in hepatocytes; pairs Compound 54 v. 58 and Compound 68 v. 67
Source text: Transfection efficiency was compared between three pairs of compounds, Compound 54 v. Compound 58, Compound 68 v. Compound 67, and Compound 37 v. Compound 61. For each pair, the compounds only differ on one fluoro-substitution at the end of an alkyl chain. For example, the structures of Compound 54 and Compound 58 are shown below:
In vitro and in vivo comparison of Firefly Luciferase expression data of fluoro v. non-fluoro compounds were obtained according to procedure similar to those in Example 3 and Example 7. […] Compound 58 and Compound 68 v. Compound 67 in hepatocytes.

AML12 Cell Line = experiment: Transfection of AML12 Cell Line with FLuc mRNA LNPs (ONE-Glo EX luciferase signal); type: cell-based; conditions: 200 ng Fluc mRNA-LNP, 24 hours
How it was run: (§1)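 LNPs (ionizable/structural/helper/PEG lipids, microfluidic mixing, mRNA quantified by RiboGreen) pre-incubated 30 min with mouse serum, then added at 200 ng mRNA per well in Opti-MEM to B16F10, MC38.K (5,000 cells/well) or AML12 (20,000 cells/well). Luminescence read after 24 h transfection.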

Liver = experiment: Ex-vivo luminescence signal from liver after IV Fluc mRNA LNPs in CD1 mice (IVIS); conditions: tail vein 1.0 mg/kg Day 0 and Day 2, imaging 18 hours after second dose; for Total Liver Tissue Luciferin Signal (Photons/s) Ex-vivo - CD1: Table 4; for Total Liver Tissue Luciferin Signal (Photons/s) In Vivo-Cd1: Table 5
B16F10 Cell Line = experiment: Transfection of B16F10 Cell Line with FLuc mRNA LNPs (ONE-Glo EX luciferase signal); type: cell-based; conditions: 200 ng Fluc mRNA-LNP, 24 hours
How it was run: as §1

MC38.K Cell Line = experiment: Transfection of MC38.K Cell Line with FLuc mRNA LNPs (ONE-Glo EX luciferase signal); type: cell-based; conditions: 200 ng Fluc mRNA-LNP, 24 hours; for Total Luciferin Signal (RLU) In Vitro - MC38.K: Table 4; for Total Luciferin Signal (RLU) In Vitro-MC38: Table 5
How it was run: as §1

C57BL/6 mice = experiment: Multi-dose tolerability screening of NT-beta-Actin mRNA LNPs in MC38.K-inoculated C57BL/6 mice; type: in vivo; conditions: C57BL/6 mice with MC38.K, 1.0 mg/kg IV twice a week for two weeks; for adverse clinical observations / reduction in white blood cells and lymphocytes in the blood: compared to Compound 23 LNPs
Experimental: NT-beta-Actin mRNA LNPs with different ionizable lipids were administered IV to C57BL/6 mice, inoculated with MC38.K cells, via the tail vein for a total of four doses (twice a week for two consecutive weeks) at a concentration of 1.0 mg/kg. Bodyweights were monitored and blood was collected pre-dose, 24 hours post first dose, 24 hours post fourth dose, and analyzed for cytokines, blood chemistry, and liver/spleen weights. Compounds 23, 99 and 101 were formulated using a peripheral process method. C57BL/6 mice were inoculated with MC38.K cells. Once tumors had grown, 1.0 mg/kg (Beta-Actin mRNA) of each LNP was intravenously administered twice a week for two weeks. […] N=6 per group for bodyweights, N=3 for blood analysis. Mean+/−SD.

Spleen = experiment: Ex-vivo luminescence signal from spleen after IV Fluc mRNA LNPs in CD1 mice (IVIS); conditions: tail vein 1.0 mg/kg Day 0 and Day 2, imaging 18 hours after second dose, Table 5
liver, tumor, and spleen = experiment: Biodistribution of Fluc mRNA LNPs in MC38.K-inoculated Albino B6 mice (ex vivo luminescence); conditions: Albino B6 mice with MC38.K, 1.0 mg/kg IV, 18 hours
Experimental: Fluc mRNA LNPs were administered to Albino B6 mice, inoculated with MC38.K cells, via the tail vein at 1.0 mg/kg. Eighteen hours later, bioluminescence was measured using an IVIS Spectrum imager. Mice were treated with 150 mg/kg luciferin substrate administered via intraperitoneal injection. Afterwards, mice were euthanized, and the lung, liver, spleen, and tumor were harvested for ex vivo imaging. All procedures were conducted according to the approved IACUC guidelines. N=5 per group. Data analysis was performed in Graphpad Prism 10. Values are reported as mean+/−standard deviation, unless specified otherwise. Ex-Vivo luminescence of liver, tumor, and spleen organs after 1.0 mg/kg IV injection of Peripheral LNPs. N=4 mice per group. (Mean±SD, n=4/group).

Row | Compound | difference in transfection efficiency within fluoro v. non-fluoro pair (hepatocytes) | Total Luciferin Signal (RLU) In Vitro - AML12 (AML12 Cell Line; Table 4) [RLU] | Total Liver Tissue Luciferin Signal (Photons/s) Ex-vivo - CD1 (Liver) [Photons/s] | Total Luciferin Signal (RLU) In Vitro - B16F10 (B16F10 Cell Line; Table 4) [RLU] | Total Luciferin Signal (RLU) In Vitro - MC38.K (MC38.K Cell Line) [RLU] | tolerability (C57BL/6 mice) | adverse clinical observations (C57BL/6 mice) | reduction in white blood cells and lymphocytes in the blood (C57BL/6 mice) | Total Spleen Tissue Luciferin Signal (Photons/s) In Vivo-Cd1 (Spleen) [Photons/s] | Total Luciferin Signal (RLU) In Vitro - AML12 (AML12 Cell Line; Table 5) [RLU] | Total Liver Tissue Luciferin Signal (Photons/s) In Vivo-Cd1 (Liver) [Photons/s] | Total Luciferin Signal (RLU) In Vitro - B16F10 (B16F10 Cell Line; Table 5) [RLU] | expression in liver and spleen (ex-vivo luminescence) (liver, tumor, and spleen) | expression in solid tumor tissue (ex-vivo luminescence) (liver, tumor, and spleen) | Total Luciferin Signal (RLU) In Vitro-MC38 (MC38.K Cell Line) [RLU]
1 | CCCCCCCCC(CCCCCCCCF)OC(=O)CCCCCCCN(CCCCO)CCCCCCC(C)C(=O)OCCCCCCCCC(C)C (stereo not drawn) [Compound 67, 9-methyldecyl 8-((8-((1-fluoroheptadecan-9-yl)oxy)-8-oxooctyl)(4-hydroxybutyl)amino)-2-methyloctanoate] | Statistically significant difference in transfection efficiency | 4.35E+06 | 5.31E+09 | 2.75E+06 | 3.24E+07 |  |  |  |  |  |  |  |  |  | 
2 | CCCCCCCCC(CCCCCCCC)OC(=O)CCCCCCCN(CCCCO)CCCCCCC(C)C(=O)OCCCCCCCCC(C)C (stereo not drawn) [Compound 68, 9-methyldecyl 8-((8-(heptadecan-9-yloxy)-8-oxooctyl)(4-hydroxybutyl)amino)-2-methyloctanoate] | Statistically significant difference in transfection efficiency | 2.89E+06 | 1.06E+10 | 2.83E+06 | 1.60E+07 |  |  |  |  |  |  |  |  |  | 
3 | CCCCCCCC/C=C\CCCCCCC1CN(CCOC(=O)CCN(C)C)CC(CCCCCC(=O)OC(CCCCCCCC)CCCCCCC(C)C)O1 (stereo not drawn) [Compound 99, 2-methylheptadecan-9-yl (Z)-6-(4-(2-((3-(dimethylamino)propanoyl)oxy)ethyl)-6-(hexadec-7-en-1-yl)morpholin-2-yl)hexanoate] |  |  |  |  |  | improved tolerability | less adverse clinical observations | less of a reduction in white blood cells and lymphocytes | 2.78E+07 | 1.00E+05 | 1.81E+09 | 5.27E+05 | significantly less expression | nearly equivalent expression | 7.66E+04
4 | CCCCCCCC/C=C\CCCCCCC1CN(CCCOC(=O)CCN(C)C)CC(CCCCCC/C=C\CCCCCCCC)O1 (stereo not drawn) [Compound 96, 3-(2,6-di((Z)-hexadec-7-en-1-yl)morpholino)propyl 3-(dimethylamino)propanoate] |  |  |  |  |  |  |  |  | 6.35E+06 | 1.49E+05 | 4.34E+06 | 1.16E+05 |  |  | 1.25E+05
5 | CCCCCCCC/C=C\CCCCCCC1CN(CCOC(=O)CCN(C)C)CC(CCCCCC/C=C\CCCCCCCC)O1 (stereo not drawn) [Compound 95, 2-(2,6-di((Z)-hexadec-7-en-1-yl)morpholino)ethyl 3-(dimethylamino)propanoate] |  |  |  |  |  |  |  |  | 2.69E+06 | 1.49E+05 | 2.92E+06 | 2.09E+05 |  |  | 7.12E+04
6 | CCCCCCCC/C=C\CCCCCCC1CN(CCOC(=O)CCN(C)C)CC(CCCCCC(=O)OC(CCCCCCCC)CCCCCCCC)O1 (stereo not drawn) [Compound 97, heptadecan-9-yl (Z)-6-(4-(2-((3-(dimethylamino)propanoyl)oxy)ethyl)-6-(hexadec-7-en-1-yl)morpholin-2-yl)hexanoate] |  |  |  |  |  |  |  |  | 1.60E+07 | 2.58E+05 | 2.08E+08 | 2.98E+06 |  |  | 6.42E+05
7 | CCCCCCCCC(CCCCCCCCF)OC(=O)CCCCCCCN(CCO)CCCCCCCC(=O)OCCCCCCCC=C(C)C (stereo not drawn) [Compound 58, 1-fluoroheptadecan-9-yl 8-((2-hydroxyethyl)(8-((9-methyldec-8-en-1-yl)oxy)-8-oxooctyl)amino)octanoate] | Statistically significant difference in transfection efficiency | 2.18E+06 | 9.65E+09 | 4.03E+05 | 4.80E+06 |  |  |  |  |  |  |  |  |  | 
8 | CCCCCCCCCOC(=O)CCCCCC1CN(CCOC(=O)CCN(C)C)CC(CCCCCC(=O)OC(CCCCCCCC)CCCCCCCC)O1 (stereo not drawn) [Compound 101, heptadecan-9-yl 6-(4-(2-((3-(dimethylamino)propanoyl)oxy)ethyl)-6-(6-(nonyloxy)-6-oxohexyl)morpholin-2-yl)hexanoate] |  |  |  |  |  | improved tolerability | less adverse clinical observations | less of a reduction in white blood cells and lymphocytes | 1.57E+08 | 9.36E+04 | 6.70E+08 | 6.73E+04 |  |  | 6.90E+05
9 | CCCCCCCCC(CCCCCCCC)OC(=O)CCCCCCCN(CCO)CCCCCCCOC(=O)CCCCCCCC=C(C)C [Compound 54, 7-((8-(heptadecan-9-yloxy)-8-oxooctyl)(2-hydroxyethyl)amino)heptyl 10-methylundec-9-enoate] | Statistically significant difference in transfection efficiency | 1.05E+06 | 8.29E+09 | 7.25E+05 | 5.12E+06 |  |  |  |  |  |  |  |  |  | 
10 | CCCCCCCC/C=C\CCCCCCC1CN(CCOC(=O)CCCN(C)C)CC(CCCCCC(=O)OC(CCCCCCCC)CCCCCCCC)O1 (stereo not drawn) [Compound 94, heptadecan-9-yl (Z)-6-(4-(2-((4-(dimethylamino)butanoyl)oxy)ethyl)-6-(hexadec-7-en-1-yl)morpholin-2-yl)hexanoate] |  |  |  |  |  |  |  |  | 1.22E+07 | 1.41E+06 | 1.30E+07 | 2.82E+06 |  |  | 1.75E+06
11 | CCCCCCCC/C=C\CCCCCCC1CN(CCOC(=O)CCCN(C)C)CC(CCCCCC/C=C\CCCCCCCC)O1 (stereo not drawn) [Compound 93, 2-{2,6-bis[(Z)-7-hexadecenyl]-4-morpholinyl}ethyl 4-(dimethylamino)butyrate] |  |  |  |  |  |  |  |  | 2.48E+06 | 3.05E+07 | 1.72E+06 | 4.80E+05 |  |  | 3.69E+05
